Read-outs that look alike come from different tables or passages of the source.

Format in all cases: cell-based
Assay [1] deals with eotaxin. As to the kind of experiment: Eotaxin assay: enzyme immunoassay of TNF-α and IL-4 induced eotaxin expression in BEAS-2B cells. To be noted: Homo sapiens, TNF 10 ng/ml + IL-4, approximately 16 hours. How it is done: The eotaxin assay is an enzyme immunoassay to measure tumor necrosis factor alpha (TNF-α) and interleukin-4 (IL-4) induced expression of eotaxin in a human epithelial cell line (BEAS-2B).
BEAS-2B cells purchased from ATCC and maintained in DMEM/F12 plus 10% serum and penicillin plus streptomycin. In a typical experiment, cells were seeded in 96-well plates. The next day cells were stimulated with TNF (10 ng/ml)+IL-4 ([…]) in the presence or absence of compounds dissolved in dimethylsulphoxide (DMSO) in DMEM/F12 plus 1% rabbit serum albumin (RSA). To establish a dose curve for each compound, three concentrations in 2 fold increments were used. Cells were exposed to cytokines and compounds for approximately 16 hours. The next day, the cells were examined under microscope to score for visual signs of toxicity. The culture media was used to measure eotaxin level.
100 μl of anti-human eotaxin monoclonal antibody (3 μg/ml) purchased from R & D Systems was used to coat 96-well plates overnight at room temperature. […] 2N sulphuric acid stopped the color development and data were collected by a microplate reader set at O.D. 450 nm. The results were expressed as the percentage of control sample (cells stimulated by TNF without any compound).

For assay [2], the system named is 15-LOX-2. As to the kind of experiment: 15-Lipoxygenase Form-2 assay: immunoblot of TNF-α and IL-4 co-induced 15-LOX-2 expression in NHBE cells. To be noted: Homo sapiens, TNF-α 10 ng/ml + IL-4 20 ng/ml, 16-20 hours. How it is done:
The 15-Lipoxygenase Form-2 (15-LOX-2) Assay is an immunoblot assay to measure tumor necrosis factor alpha (TNF-α) and interleukin-4 (IL-4) co-induced expression of 15-LOX-2 in Normal Human Epithelial Cells.
Normal human bronchial epithelial cells (NHBE) were purchased from Clonetics. They were cultured in BEGM (Clonetics) media without retinoic acid. In a typical experiment, the cells were seeded in 24-well plates. Media was changed to BEGM without retinoic acid (RA) and hydrocortisone (HC) 24 hour before dosing. Cells were then exposed to TNF-α (10 ng/ml) and IL-4 (20 ng/ml) purchased from Boehringer Mannheim in the absence or presence of compounds in fresh BEGM without RA and HC for 16-20 hours at 37° C. To establish a dose curve for each compound, three concentrations in 2 fold increments were used. All compounds were dissolved in DMSO and the final concentration of DMSO was 0.2%.
Cells were washed with cold 1×PBS three times and then lysed by 100 μl of Tris-Glycine SDS sample buffer (NOVEX). Lysates were fractionated by 4-20% gradient SDS-PAGE (NOVEX), transferred onto nitrocellulose filters (MSI) and incubated with the filters in blocking buffer (5% Blotto in 1×Tris buffered saline (TBS)+0.05% Tween 20) for 1 hour with gentle shaking. […]
(In general: In western blotting, separated proteins are transferred to a membrane and probed.)

Assay [3] relates to SNU-C5 colorectal carcinoma cells. The assay is described as follows: Anti-proliferative effect on SNU-C5 cells (CellTiter96). The note with it: read-out: proliferation, percent of control; for activity at 1 µM: NDE 1 μM; for activity at 10 µM: NDE 10 μM; for activity at 100 µM: NDE 100 μM. How it is done:
(§1) All primary cells and cell lines were commercially available. The transformed cell lines were grown in Dulbecco's Modified Eagle Media supplemented with 2 mM L-glutamine, 50 I.U. penicillin, 50 μg/ml streptomycin, nonessential amino acids and 10% heat-inactivated fetal bovine serum. HASM, HAEC and NHBE cells were cultured exactly as described by the commercial provider (Clonetics, San Diego, Calif.). All cell lines were grown at 37° C. in 5% CO2, with the media being changed every 48 hours.
(§2) For the experimental assays, cells were plated in 96-well plates and grown until ˜35% confluency was achieved. For the transformed cell lines, cells were plated at low density and grown for 72 hours prior to being stimulated, whereas the non-transformed cells were plated at a higher density and grown for 24 hours prior to being stimulated.
(§3) Cells were treated with dithiocarbamate (0.1-100 μM)±5FU (0.01-10 μM) and retreated after 48 hours when media was changed. Cell growth was assessed using the CellTiter96® assay system from Promega (Madison, Wis.). Each experimental condition was performed in triplicate or quadruplicate, with the number of experiments for each cell line being three.
(§4) Statistical significance was assessed using an ANOVA with the appropriate post-hoc analysis as well as Students t-tests. *=p<0.05 when compared to control-treated (DMSO) cells. #=p<0.05 when compared to 5FU-treated cells.

Assay [4] concerns DLD-1 colorectal carcinoma cells. As to the kind of experiment: Anti-proliferative effect on DLD-1 cells (CellTiter96). To be noted: Homo sapiens, read-out: proliferation, percent of control; for activity at 1 µM: NDE 1 μM; for activity at 10 µM: NDE 10 μM; for activity at 100 µM: NDE 100 μM. The method, then:
as §1, §2, §3, §4

On to `COC(=O)CCCSC(=S)NCC1CCCO1` (centres unmarked) [NDE, 4-(tetrahydrofuran-2-ylmethylthiocarbamoylsulfanyl)-butyric acid methyl ester], for which the half-inhibitory concentration (IC50) (as a rule, the point on the concentration scale where inhibition reaches its midpoint) in assay [1] came to 6 µM; in assay [2], 4.5 µM. Also, the activity at 1 µM in assay [3] (24 HOURS) is 138 ± 24.2%; in assay [3] (48 HOURS), 105 ± 7.42%; in assay [3] (72 HOURS) it was 127 ± 16.4%; in assay [4] (24 HOURS) it was 116 ± 3.72%; in assay [4] (48 HOURS), 107 ± 7.55%; in assay [4] (72 HOURS), 133 ± 10.3%. In addition, the activity at 10 µM in assay [3] (24 HOURS) amounted to 93.4 ± 15.9%; in assay [3] (48 HOURS), 70.5 ± 8.42%; in assay [3] (72 HOURS), 59.2 ± 4.1%; in assay [4] (24 HOURS), 97.1 ± 1.79%; in assay [4] (48 HOURS) it was 104 ± 13.3%; in assay [4] (72 HOURS), 142 ± 14.9%. Moreover, the activity at 100 µM came out at 60 ± 10.8% in assay [3] (24 HOURS); 26.3 ± 8.64% in assay [3] (48 HOURS); 13.6 ± 1.31% in assay [3] (72 HOURS); 53.8 ± 5.28% in assay [4] (24 HOURS); 39.8 ± 6.27% in assay [4] (48 HOURS); 0.27 ± 0.27% in assay [4] (72 HOURS).

Source of the values: patent US6747061B2, “N-substituted dithiocarbamates for the treatment of biological disorders” (AtheroGenics, Inc., priority 2000, dated 2004).
